Biological target: T1, kinase protein levels in MCF-7 cells (Homo sapiens, UniProt Q9BTL3)
T1 construct: endogenous in cells; host or cells: MCF-7
Assay: TMT-labeled quantitative proteomics
Assay type: cell-based
Settings: protein FAM103A1; MCF7; 1 µM; set5

T1 sequence (Q9BTL3 whole entry): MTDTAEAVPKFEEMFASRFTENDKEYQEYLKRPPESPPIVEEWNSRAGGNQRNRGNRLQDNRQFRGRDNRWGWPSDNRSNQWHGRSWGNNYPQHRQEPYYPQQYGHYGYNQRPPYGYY

`Cc1ncsc1-c1ccc(CNC(=O)[C@@H]2C[C@@H](O)CN2C(=O)[C@@H](NC(=O)CCCCCCN2CCN(c3ccc(Nc4ncc(Cl)c(Nc5ccccc5C(N)=O)n4)cc3)CC2)C(C)(C)C)cc1` [6-d] was tested, and the “P.Value (compound/DMSO)” value was 0.1981 and the “log2FC (compound/DMSO)” value was -0.2114.
